From US20080139520A1, “Altering cholesterol and fat uptake by novel allosteric inhibitors of pancreatic phospholipase A2” (priority 2006, published 2008)
Several values for one entry are separate records, joined by “and”; a condition that tells them apart may be missing. Equal entries are not always repeated. Where two headings read alike, the source gives them in different places.

Key:
[1] = biological target: T1, Wild-Type PLA2 (Sus scrofa, UniProt P00592); assay: Decylsulfate binding to wild-type PLA2 (3W), Trp emission; set-up: species or system pig
T1 construct: made in house
Procedure: (§1) Fluorescence emission spectrum or time course of the intensity change from tryptophan or the resonance energy transfer probe TMA-DPH were measured in the ratio mode on SLM-Aminco AB2 in a 1 cm cuvette [31, 32] in 1.6 ml stirred buffer containing 1 or 2 μM PLA2 in 10 mM Tris, 5 mM CaCl2 and 20 mM NaCl at pH 8.0 and 24° C. The slit-widths were 4 nm with excitation at 280.
(§2) For example, as summarized in Table 3, the main effect of the presence of bile salt is on the Trp-signal intensities rather than the dissociation constant for decylsulfate.

[2] = biological target: T2, PLA2 W3F/R6W mutant (Sus scrofa, UniProt P00592, R28W/W25F); assay: Decylsulfate binding to W3F/R6W mutant PLA2 (6W), Trp emission; set-up: species or system pig
T2 construct: made in house
Procedure: as §1, §2

[3] = biological target: T3, human pancreatic IB PLA2 (Homo sapiens, UniProt P04054); assay: Rate-lowering of hydrolysis of DMPC + 0.05 mole fraction cholate vesicles by human pancreatic PLA2; format: biochemical; settings: 0.03 mole fraction; DMPC + 0.05 mole fraction cholate
T3 construct: gift of Dr. Suren Tatulian (Orlando, Fla.)
From the text: (§3) Independent support for selective binding of the rate lowering compounds to a regulatory site on PLA2 comes from the rate-lowering effect of such compounds on the hydrolysis of DMPC vesicles containing 0.05 mole fraction cholate.
(§4) Scores of other compounds in guggul were not active.

[4] = biological target: T4, pig pancreatic IB PLA2 (Sus scrofa, UniProt P00592); assay: Rate-lowering of hydrolysis of DMPC + 0.05 mole fraction cholate vesicles by pig pancreatic PLA2; format: biochemical; settings: for Relative Rate-lowering (%) Activity, pPLA2: 0.03 mole fraction, DMPC + 0.05 mole fraction cholate
T4 construct: made in house
From the text: as §3, §4

[5] = reported in literature [54-56]; cited from earlier work
[6] = biological target: T5, WT (wild type) pig PLA2 (Sus scrofa, UniProt P00592); assay: PLA2 catalyzed hydrolysis of sonicated DMPC vesicles with added bile salt (pH-stat); format: biochemical; settings: DMPC vesicles, pancreatic PLA2
T5 construct: made in house
Procedure: Aqueous dispersion of phospholipid was sonicated in a bath type sonicator. Virtually transparent suspension was annealed for at least 4 hours at room temperature before use. Reaction progress for the PLA2 catalyzed hydrolysis of sonicated DMPC (1 mM) vesicles was measured by pH-stat titration (Radiometer) with 1 mM 2-aminopropanediol in 4 ml reaction buffer containing 5 mM CaCl2 for DMPC (or 0.5 mM for DMPM), 1 mM NaCl, […] atmosphere. Reaction was initiated by adding 0.1 μg enzyme in 1-10 μl solution. The pH stat method was also used for monitoring the rate of hydrolysis of DMPM (0.4 mM) vesicles in the presence of polymyxin [27-29], or of the mixed-micelles of POPC with bile salts in 1:2 ratio [13, 30].
Delay before the onset of the stationary phase of the PLA2 catalyzed reaction progress for the hydrolysis of zwitterionic phospholipids has been extensively characterized. […] The apparent rates in FIG. 3 were obtained from the initial slopes of such reaction progress during which <5% of the total substrate is hydrolyzed.
The CMC of the bile salts used in this study range between 0.8 to 5 mM.

T3 sequence (P04054 23-148): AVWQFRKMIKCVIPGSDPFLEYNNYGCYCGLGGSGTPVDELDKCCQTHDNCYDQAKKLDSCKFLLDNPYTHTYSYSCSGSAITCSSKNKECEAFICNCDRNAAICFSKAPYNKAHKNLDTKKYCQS
T2 sequence (P00592 23-146 W25F/R28W): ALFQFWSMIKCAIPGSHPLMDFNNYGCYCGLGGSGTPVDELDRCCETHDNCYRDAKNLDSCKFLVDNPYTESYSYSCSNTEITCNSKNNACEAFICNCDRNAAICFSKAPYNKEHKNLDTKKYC
T4 sequence (P00592 23-146): as the sequence (P00592 23-146 W25F/R28W) above, with F3W, W6R counted along it
T1 sequence (P00592 23-146): as the sequence (P00592 23-146 W25F/R28W) above, with F3W, W6R counted along it
T5 sequence (P00592 23-146): as the sequence (P00592 23-146 W25F/R28W) above, with F3W, W6R counted along it

For `CCCCCCCCCCOS(=O)(=O)O` [Decylsulfate], the a1 decylsulfate binding ([1]; 3W + 0.2 mM TCDOC) was −0.03, the a2 decylsulfate binding ([1]; 3W + 0.2 mM TCDOC) was −0.07 and the n2 decylsulfate binding ([1]; 3W + 0.2 mM TCDOC) was 6. The Kd ([1]; 3W + 0.2 mM TCDOC, read-out: K2^# decylsulfate binding) was 540 µM, the a1 decylsulfate binding ([1]; 3W + Chol (0.2 mM cholate)) was 0.10 and the n1 decylsulfate binding ([1]; 3W + Chol (0.2 mM cholate)) was 1.5. For the same compound, the Kd ([1]; 3W + Chol (0.2 mM cholate), read-out: K1^# decylsulfate binding) was 50 µM, the a1 decylsulfate binding ([1]; 3W, no additive) was 0.26 and the a2 decylsulfate binding ([1]; 3W, no additive) was 0.56. The n1 decylsulfate binding ([1]; 3W, no additive) was 1.8 and 1.7, the n2 decylsulfate binding ([1]; 3W, no additive) was 8 and the Kd ([1]; 3W, no additive, read-out: K1^# decylsulfate binding) was 60 µM. The Kd ([1]; 3W, no additive, read-out: K2^# decylsulfate binding) was 650 µM, the a1 decylsulfate binding ([2]; 6W) was −0.07 and the a2 decylsulfate binding ([2]; 6W) was −0.36. For the same compound, the n1 decylsulfate binding ([2]; 6W) was 2.7, the n2 decylsulfate binding ([2]; 6W) was 2.5 and the a1 decylsulfate binding ([2]; 6W + 0.2 mM TCDOC) was −0.09. For the same compound, the a2 decylsulfate binding ([2]; 6W + 0.2 mM TCDOC) was −1.1, the n2 decylsulfate binding ([2]; 6W + 0.2 mM TCDOC) was 2.0 and the Kd ([2]; 6W + 0.2 mM TCDOC, read-out: K2^# decylsulfate binding) was 650 µM. The Kd ([2]; 6W, read-out: K1^# decylsulfate binding) was 50 µM and the Kd ([2]; 6W, read-out: K2^# decylsulfate binding) was 510 µM.
In the case of `O=C1[C@H](CC[C@H](O)c2ccc(F)cc2)[C@@H](c2ccc(O)cc2)N1c1ccc(F)cc1` [Ezetimibe], the “Relative Rate-lowering (%) Activity, hPLA2” value [3] is reported as 5%, the “Relative Rate-lowering (%) Activity, pPLA2” value [4] is reported as 30% and the “relative effectiveness in lowering the rate with pig pancreatic PLA2” value ([4]; DMPC vesicles containing 0.05 mole fraction cholate, FIG. 6) is reported as “more effective”. The reported side effects [5] was “hepatotoxicity, cholestatic hepatitis, acute autoimmune hepatitis, myopathy, and modulation of monocytic raft assembly”.
In the case of `C[C@H](CCC(=O)NCC(=O)O)[C@H]1CC[C@H]2[C@@H]3CC[C@@H]4C[C@H](O)CC[C@]4(C)[C@H]3C[C@H](O)[C@]12C` [GDOC, glycodeoxycholate], the “effect of bile salt on the rate of hydrolysis (monophasic/biphasic)” value [6] is reported as “biphasic effect”.
With `CC=C1C(O)C[C@H]2[C@@H]3CCC4=CC(=O)CC[C@]4(C)[C@H]3CC[C@]12C` (some centres unmarked) [Gugguloster-3-one-16-ol] the “Relative Rate-lowering (%) Activity, hPLA2” value [3] was 56% and the “Relative Rate-lowering (%) Activity, pPLA2” value [4] was 90%.
In the case of `C/C=C1\C(=O)C[C@H]2[C@@H]3CCC4=CC(=O)CC[C@]4(C)[C@H]3CC[C@]12C` [Guggulosterone], the “Relative Rate-lowering (%) Activity, hPLA2” value [3] is reported as 53% and the “Relative Rate-lowering (%) Activity, pPLA2” value [4] is reported as 85%.
